Values after ≈ are worked out from the molar mass of the structure shown. Where two headings read alike, the source gives them in different places.
Experiments:
S. aureus 675 = assay: In vitro MIC, standard microtiter assay; type: cell-based, Staphylococcus aureus; details: Staphylococcus aureus, 675; Table A; read-out: MIC
Description: (§1) In vitro minimum inhibitory concentrations (MIC) of the AAD-609 complex and of Factors A, B, CC2 and D, using standard microtiter assay procedures, against a number of microorganisms are reported in Table A, which follows.

S. aureus 209P = assay: In vitro MIC, standard microtiter assay; type: cell-based, Staphylococcus aureus; details: Staphylococcus aureus, 209P; Table A; read-out: MIC
Description: as §1

[1] = system: S. aureus 910 (methicillin resistant strain); assay: In vitro MIC, standard microtiter assay; type: cell-based, Staphylococcus aureus; details: Staphylococcus aureus; Table A; methicillin resistant strain; read-out: MIC
Description: as §1

S. aureus 674 = assay: In vitro MIC, standard microtiter assay; type: cell-based, Staphylococcus aureus; details: Staphylococcus aureus, 674; Table A; read-out: MIC
Description: as §1

S. epidermidis 2265 = assay: In vitro MIC, standard microtiter assay; type: cell-based; details: Staphylococcus epidermidis, 2265; Table A; read-out: MIC
Description: as §1

Clostridium difficile = assay: In vitro MIC, standard microtiter assay; type: cell-based; details: Clostridioides difficile; Table A; read-out: MIC
Description: as §1

[2] = system: Staphylococcus aureus HH127; assay: In vitro MIC, standard microtiter assay; type: cell-based
Description: as §1

[3] = system: Salmonella gallinarum BC-595; assay: In vitro MIC, standard microtiter assay; type: cell-based; details: Salmonella enterica, GALLINARUM; Table A; read-out: MIC
Description: as §1

[4] = system: S. epidermidis 651 (methicillin resistant strain); assay: In vitro MIC, standard microtiter assay; type: cell-based; details: methicillin resistant strain
Description: as §1

S. epidermidis 2683 = assay: In vitro MIC, standard microtiter assay; type: cell-based; details: Staphylococcus epidermidis, 2683; Table A; read-out: MIC
Description: as §1

[5] = system: Streptococcus faecalis 657; assay: In vitro MIC, standard microtiter assay; type: cell-based; details: Enterococcus faecalis, 657; Table A; read-out: MIC
Description: as §1

Escherichia coli 12140 = assay: In vitro MIC, standard microtiter assay; type: cell-based; details: Escherichia coli, 12140; Table A; read-out: MIC
Description: as §1

S. epidermidis 2479 = assay: In vitro MIC, standard microtiter assay; type: cell-based
Description: as §1

[6] = 30:70 acetonitrile:water
[7] = system: S. aureus 2620 (methicillin resistant strain); assay: MIC; type: cell-based; details: Staphylococcus aureus; Table B; methicillin resistant strain; read-out: MIC
Description: as §1

S. faecalis 34358 = assay: In vitro MIC, standard microtiter assay; type: cell-based, Streptococcus faecalis
Description: as §1

SK&F-AAD-609 = assay: Susceptibility of SK&F-AAD-609 to antibiotics (diffusion method, BBL susceptibility disks); type: cell-based, Kibdelosporangium aridum subsp. largum; details: 28° C., one week
Experimental: Susceptibility of SK&F-AAD-609 to antibiotics was examined by placing BBL susceptibility disks on nutrient agar plates seeded with SK&F-ADD-609 as an agar overlay. Plates were placed at 4° C. for one hour to permit diffusion of the anitbiotics and, subsequently, incubated at 28° C. Diameters of the zones of inhibition were measured after incubation for one week.
Susceptibility to Antibiotics. […] Chlortetracycline (5 μg) produced 17-18 mm zones of inhibition; tetracycline (5 μg) 9-12 mm zones; rifampin (5 μg) 10-12 mm zones; novobiocin (5 μg) 30-35 mm zones. All zones of inhibition contained at least a few resistant colonies.

[8] = system: Hubbard cross day-old chicks; assay: Growth of chicks; type: in vivo; details: 8 reps
Experimental: The effects of virginiamycin, AAD-609 Complex (containing less than 5% AAD-216 antibiotics) and AAD-216 Complex on growth of chicks were evaluated as follows. Hubbard cross day-old chicks were housed in wire-floored poultry caging. Eight chicks were included in each pen/rep. Weights and feed intakes were recorded on days 10 and 17. Results showing animal weight as a percentage of a control fed a normal rye-based ration and animal feed intake per unit weight gain as a percentage of animal feed intake (g) per unit weight gain (g) of the controls are reported in the following table.

[9] = system: mixed intestinal microflora (cecum fluid); assay: Swine in vitro model; details: one level, up to 166.67 ppm; 4-5 h
Experimental: A swine in vitro model was used to characterize AAD-609 antibiotics as potential feed additives in swine and poultry. Mixed intestinal microflora were obtained from ileally-cannulated pigs. Virginiamycin, carbadox, AAD-216 and its components, and AAD-609 Complex (containing less than 5% AAD-216 antibiotics) were tested at one level. […] Glucose (GLU) was spared from microbial degradation. Volatile fatty acids (TOTAL) were the major end-product of microbial metabolism while lactic acid production were reduced. […] Since AAD-609 and AAD-216 give similar in vitro results, it is expected that AAD-609 has similar growth-promoting activity in monogastric animals. Also, the in vitro activity of AAD-609 is similar to the activity previously observed with bacitracin in this model.
The swine in vitro model was carried out by incubating 1.5 ml of cecum fluid, from a swine fed normal rations, mixed with 1.5 ml of a nutrient broth (3 mg casein hydrolysate, 30 mg maltose, 1.25 mg urea, 0.5 mg lysine, and 30 mg cellobiose) and with up to 166.67 parts per million of a selected growth promotant at 39° C., with oscillation, for about 4-5 hours. Results, percentage of control, are reported in the following table in which all abbreviations are as above except that LLA means L-lactate and ETOH means ethanol.

Compound: CNC1C(=O)NC2C(=O)NC(C(=O)NC3C(=O)NC4C(=O)NC(C(=O)NC(C(=O)O)c5cc(O)cc(OC6OC(CO)C(O)C(O)C6O)c5-c5cc4ccc5O)C(O)c4cc(Cl)c(c(Cl)c4)Oc4cc3cc(c4OC3OC(CO)C(O)C(O)C3NC(=O)CCCCCCCC(C)C)Oc3ccc(cc3Cl)C2O)c2cc(cc(O)c2Cl)Oc2cc1ccc2O (stereo not drawn) [AAD-609 B]
- MIC (S. aureus 675): 6.3 µg/mL (≈ 3.52 µM)
- MIC (S. aureus 209P): 0.8 µg/mL (≈ 0.447 µM)
- MIC [1]: 1.6 µg/mL (≈ 0.894 µM)
- MIC (S. aureus 674): 0.8 µg/mL (≈ 0.447 µM)
- MIC (S. epidermidis 2265): 25 µg/mL (≈ 14 µM)
- MIC (Clostridium difficile): 0.5 µg/mL (≈ 0.279 µM)
- MIC ([2]; Staphylococcus aureus, HH127, Table A, read-out: MIC): 1.6 µg/mL (≈ 0.894 µM)
- MIC ([2]; Table B): 1.6 µg/mL (≈ 0.894 µM)
- MIC [3]: > 100 µg/mL
- MIC ([4]; Staphylococcus epidermidis, Table A, read-out: MIC): 50 µg/mL (≈ 27.9 µM)
- MIC ([4]; Table B): 50 µg/mL (≈ 27.9 µM)
- MIC (S. epidermidis 2683): 25 µg/mL (≈ 14 µM)
- MIC [5]: 0.2 µg/mL (≈ 0.112 µM)
- MIC (Escherichia coli 12140): > 100 µg/mL
- MIC (S. epidermidis 2479; Staphylococcus epidermidis, 2479, Table A, read-out: MIC): 12.5 µg/mL (≈ 6.99 µM)
- MIC (S. epidermidis 2479; Table B): 12.5 µg/mL (≈ 6.99 µM)
- pKa (A) carboxyl on aglycone [6]: 3.5
- pKa (C) amino group on aglycone [6]: 7.1
- MIC [7]: 2 µg/mL (≈ 1.12 µM)
- MIC (S. faecalis 34358; Enterococcus faecalis, 34358, Table A, read-out: MIC): 0.2 µg/mL (≈ 0.112 µM)
- MIC (S. faecalis 34358; Table B): 0.2 µg/mL (≈ 0.112 µM)

Compound: CN(C)[C@@H]1C(O)=C(C(N)=O)C(=O)[C@@]2(O)C(O)=C3C(=O)c4c(O)ccc(Cl)c4[C@@](C)(O)[C@H]3C[C@@H]12 [Chlortetracycline]
- Zone of inhibition (diameter) (SK&F-AAD-609; disk 5 μg): 17-18 mm

Compound: CC1(C)S[C@@H]2[C@H](NC(=O)[C@H](N)c3ccccc3)C(=O)N2[C@H]1C(=O)O [ampicillin]
- Susceptibility (diffusion method) (SK&F-AAD-609; disk 10 μg): resistant

Compound: CC(=O)OCC1=C(C(=O)O)N2C(=O)[C@@H](NC(=O)Cc3cccs3)[C@H]2SC1 [cephalothin]
- Susceptibility (diffusion method) (SK&F-AAD-609; disk 30 μg): resistant

Compound: O=C(N[C@H](CO)[C@H](O)c1ccc([N+](=O)[O-])cc1)C(Cl)Cl [chloramphenicol]
- Susceptibility (diffusion method) (SK&F-AAD-609; disk 5 μg): resistant

Compound: CCC[C@@H]1C[C@@H](C(=O)N[C@@H]([C@H]2O[C@H](SC)[C@H](O)[C@@H](O)[C@H]2O)[C@@H](C)O)N(C)C1 [lincomycin]
- Susceptibility (diffusion method) (SK&F-AAD-609; disk 2 μg): resistant

Compound: CO[C@@H]1[C@@H](OC(N)=O)[C@@H](O)[C@H](Oc2ccc3c(O)c(NC(=O)c4ccc(O)c(CC=C(C)C)c4)c(=O)oc3c2C)OC1(C)C [novobiocin]
- Zone of inhibition (diameter) (SK&F-AAD-609; disk 5 μg): 30-35 mm

Compound: CC1(C)S[C@@H]2[C@H](NC(=O)Cc3ccccc3)C(=O)N2[C@H]1C(=O)O [penicillin]
- Susceptibility (diffusion method) (SK&F-AAD-609; disk 10 units): resistant

Compound: CO[C@H]1/C=C/O[C@@]2(C)Oc3c(C)c(O)c4c(O)c(c(/C=N/N5CCN(C)CC5)c(O)c4c3C2=O)NC(=O)/C(C)=C\C=C\[C@H](C)[C@H](O)[C@@H](C)[C@@H](O)[C@@H](C)[C@H](OC(C)=O)[C@@H]1C [rifampin]
- Zone of inhibition (diameter) (SK&F-AAD-609; disk 5 μg): 10-12 mm

Compound: [H]/N=C(/N)N[C@H]1[C@H](O)[C@@H](O)[C@H](O[C@@H]2O[C@@H](C)[C@](O)(C=O)[C@H]2O[C@@H]2O[C@@H](CO)[C@H](O)[C@@H](O)[C@@H]2NC)[C@@H](N/C(N)=N\[H])[C@@H]1O [streptomycin]
- Susceptibility (diffusion method) (SK&F-AAD-609; disk 10 μg): resistant

Compound: CN(C)[C@@H]1C(=O)C(C(N)=O)=C(O)[C@@]2(O)C(=O)C3=C(O)c4c(O)cccc4[C@@](C)(O)[C@H]3C[C@@H]12 [tetracycline]
- Zone of inhibition (diameter) (SK&F-AAD-609; disk 5 μg): 9-12 mm

Compound: NC[C@H]1O[C@H](O[C@H]2[C@H](O)[C@@H](O[C@H]3O[C@H](CO)[C@@H](O)[C@H](N)[C@H]3O)[C@H](N)C[C@@H]2N)[C@H](N)C[C@@H]1O [tobramycin]
- Susceptibility (diffusion method) (SK&F-AAD-609; disk 10 μg): resistant

Compound: gentamicin
- Susceptibility (diffusion method) (SK&F-AAD-609; disk 10 μg): resistant

Compound: virginiamycin
- Feed/gain, days 3-10 ([8]; 10.0 ppm in feed): 99.8 % of control
- Feed/gain, days 3-17 ([8]; 10.0 ppm in feed): 97.5 % of control
- Feed/gain, days 10-17 ([8]; 10.0 ppm in feed): 96.6 % of control
- Mortality ([8]; 10.0 ppm in feed): 4
- Weight, day 10 ([8]; 10.0 ppm in feed): 100.3 % of control
- Weight, day 17 ([8]; 10.0 ppm in feed): 101.8 % of control
- Feed/gain, days 3-10 ([8]; 50.0 ppm in feed): 92.8 % of control
- Feed/gain, days 3-17 ([8]; 50.0 ppm in feed): 83.2 % of control
- Feed/gain, days 10-17 ([8]; 50.0 ppm in feed): 74.3 % of control
- Mortality ([8]; 50.0 ppm in feed): 2
- Weight, day 10 ([8]; 50.0 ppm in feed): 101.5 % of control
- Weight, day 17 ([8]; 50.0 ppm in feed): 120.2 % of control
- % PR (percent propionate) [9]: 69 % of control
- ACE (acetate) [9]: 53 % of control
- BUT (butyrate) [9]: 153 % of control
- ETOH (ethanol) [9]: 25 % of control
- GLU (glucose) [9]: 180 % of control
- IBU (isobutyrate) [9]: 0 % of control
- IVA (isovalerate) [9]: 0 % of control
- LLA (L-lactate) [9]: 4 % of control
- LYS (lysine) [9]: 94 % of control
- PRO (propionate) [9]: 44 % of control
- TOTAL (total volatile fatty acids) [9]: 63 % of control
- VAL [9]: 0 % of control
